The record followed here is patent US10604514B2, “6-(5-membered heteroaryl)isoquinolin-3-yl carboxamides and preparation and use thereof” (Samumed, LLC, priority 2017, dated 2020).

Read-outs that look alike come from different tables or passages of the source.

In assay [1] the test system is SW480 colon carcinoma cells. The assay can be described thus: Cell viability assay (CellTiter-Glo) in SW480 cells.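 For all read-outs here: SW480 cells stably carrying an Sp5-luciferase TCF/LEF reporter, luminescent ATP signal as viability measure, DMSO-treated cells as control.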 The following applies: Homo sapiens; for EC50: 96 h, cell viability, SW480 cells, four days, CellTiter-Glo. In kind it is cell-based, human. On the technique in general: In ATP-based viability assays light output follows the ATP content of the culture.
In assay [2] the test system is LL29 cells (primary human fibroblasts derived from IPF patients), α-smooth muscle actin. Put plainly: Inhibition of fibrotic process: αSMA in TGF-β1-treated primary human fibroblasts from IPF patients (LL29 cells). The format is cell-based. The note with it: Homo sapiens, Fibroblast, 96 h; % αSMA-positive LL29 cells, TGF-β1 20 ng/mL, 4 days. Summed up: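 Read-out is the percentage of αSMA-positive cells by high-content imaging, excluding SYTOX green-positive dead/apoptotic cells, normalized to TGF-β1-only wells on the same plate. LL29 cells were exposed for 4 days at 37 °C to 20 ng/mL TGF-β1 plus 11-point, 2-fold compound dilutions in 0.1% DMSO.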

The target of the next assay is DYRK1A kinase (Homo sapiens (Human), UniProt Q13627). Put plainly: DYRK1A kinase assay (Ser/Thr 18 peptide Z-lyte, FRET).
The subject of another assay is IL-6. Put plainly: IL-6 inhibition in LPS-stimulated human peripheral blood mononuclear cells (HTRF). The note with it: Homo sapiens, PBMC; for EC50: IL-6, LPS-stimulated huPBMCs, HTRF; for inhibition at 10 µM: read-out: percent value in parentheses below EC50 >10. In kind it is cell-based. Summed up:
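EC50 from a 4-parameter fit of DMSO-normalized HTRF (665/620 nm) IL-6 signal, duplicates. Compound was added to fresh human PBMCs in 1% FBS RPMI for 2 h (top 10 μM, 3-fold, 0.25% DMSO) before 22 h stimulation with LPS at 50 ng/mL, 37 °C.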
For orientation: TR-FRET usually uses a lanthanide donor and a delayed reading to cut background.

Assay [3] concerns Wnt activity (Sp5-Luc reporter in SW480 colon carcinoma cells). Put plainly: Wnt activity screening assay (Sp5-Luc reporter gene assay). The note with it: Homo sapiens; for EC50: Sp5-Luc reporter, SW480 cells, 36 to 48 hours; for inhibition at 10 µM: SW480, read-out: percent inhibition at 10 μM. The format is cell-based, human. The procedure, abridged:
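Compounds at 10 points (1:3 steps, top 10 μM, 0.1% DMSO final) were incubated 36 to 48 h at 37° C with stable Sp5-Luc SW480 reporter cells in 1% FBS medium. Luciferase luminescence was then read and expressed relative to DMSO-only cells. Four-parameter variable-slope fitting yielded EC50 values.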
Background: Reporter assays use an easily measured gene product as a stand-in for the process of interest.

A further assay has as its target GSK3β kinase (Homo sapiens (Human), UniProt P49841). The assay can be described thus: GSK3β kinase assay (Ser/Thr 09 peptide Z-lyte, FRET).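 Note: Coumarin/fluorescein emission ratio converted to percent phosphorylation against unphosphorylated (0%) and phosphorylated (100%) controls, 1 h compound incubation at room temperature, 11-point threefold dilutions from 10 µM, run in duplicate.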 In kind it is biochemical. The following applies: method text calls the value IC50.
The subject of assay [4] is Tau phosphorylation at Ser396 (pSer396), SH-SY5Y cells. Put plainly: Tau phosphorylation at Ser396 (pSer396) in SH-SY5Y cells, ELISA/western blot.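 Note: cell lysates probed for reduced Tau pSer396 via ELISA (colorimetric) or western blot (chemiluminescence), both with one shared pSer396 antibody, EC50 for lowering phosphorylation.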 The format is cell-based, human. The following applies: Homo sapiens; SH-SY5Y cells, overnight (16-18 h); read-out: pSer396 Tau EC50.
Experimental: Two days before treatment, cells were seeded onto 96 well plates at 5×10^4 cells/well.
Wells were visually checked for cell death or change in morphology and supernatants were tested for cytotoxicity by measurement of lactate dehydrogenase release (LDH, CytoToxOne kit, Promega) if necessary.
Cells were lysed with RIPA buffer complemented with phosphatase and protease inhibitors then lysates were spun down at 12,000 g for 10 min to remove any cellular debris. Lysates are then either directly tested for pSer396 by ELISA (Life Technology, Kit KHB7031) or loaded on NuPage Bis-Tris gels for western blot analysis. Colorimetric detection of ELISA signal is performed by Cytation3 plate reader (Biotek) and the chemiluminescence signal for HRP-linked antibodies used in western blotting is detected using a Carestream Image Station. The same pSer396 antibody is used for detection of pTau in both assays.
The mark [5] stands for this setting: DYRK1A kinase, method text calls the value IC50.

Sequence of GSK3β kinase (P49841 whole entry): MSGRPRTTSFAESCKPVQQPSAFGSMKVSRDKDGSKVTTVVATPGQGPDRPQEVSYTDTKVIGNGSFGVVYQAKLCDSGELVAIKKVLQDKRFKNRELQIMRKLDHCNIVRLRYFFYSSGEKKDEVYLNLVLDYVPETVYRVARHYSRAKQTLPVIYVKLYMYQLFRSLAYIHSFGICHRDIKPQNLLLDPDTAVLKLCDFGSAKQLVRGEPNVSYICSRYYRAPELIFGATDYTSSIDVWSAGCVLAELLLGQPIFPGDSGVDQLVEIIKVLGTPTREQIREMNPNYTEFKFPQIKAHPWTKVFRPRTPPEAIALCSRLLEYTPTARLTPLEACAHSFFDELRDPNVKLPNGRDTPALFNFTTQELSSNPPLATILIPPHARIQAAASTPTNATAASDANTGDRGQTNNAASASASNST

In general, EC50 refers to the concentration that produces a half-maximal response. In the case of `Cc1ncc(-c2ccc3cnc(NC(=O)[C@H]4CC[C@H](N(C)CC(F)F)CC4)cc3c2)o1` [Compound 44, trans-4-((2,2-Difluoroethyl)(methyl)amino)-N-(6-(2-methyloxazol-5-yl)isoquinolin-3-yl)cyclohexane-1-carboxamide], the EC50 in assay [1] was determined as 2800 nM; in assay [2] it was 247 nM; at DYRK1A kinase (setting [5]) it was 5 nM; in the assay with IL-6 it was 1130 nM; in assay [3], 799 nM; on GSK3β kinase, 65 nM. In addition, in assay [4], the EC50 is 445 nM.

Turning to `Cc1nnc(-c2ccc3cnc(NC(=O)C4CCN(C)CC4)cc3c2)s1` [Compound 46, 1-Methyl-N-(6-(5-methyl-1,3,4-thiadiazol-2-yl)isoquinolin-3-yl)piperidine-4-carboxamide], the EC50 was 1040 nM in assay [1]; 640 nM in assay [2]; 6 nM on DYRK1A kinase; 3760 nM in the assay on IL-6; 730 nM in assay [3]; 23 nM at GSK3β kinase. The EC50 in assay [4] worked out at 91 nM.

Regarding `Cc1ncc(-c2ccc3cnc(NC(=O)C4CCN(C)CC4)cc3c2)o1` [Compound 47, 1-Methyl-N-(6-(2-methyloxazol-5-yl)isoquinolin-3-yl)piperidine-4-carboxamide], the EC50 in assay [1] worked out at 751 nM; in assay [2], 262 nM; on DYRK1A kinase (setting [5]) it was 6 nM; with IL-6, 945 nM; in assay [3], 917 nM; at GSK3β kinase, 65 nM. Besides, in assay [4], the EC50 worked out at 174 nM.

Take `COC1CCN(CC(=O)Nc2cc3cc(-c4cnc(C)o4)ccc3cn2)CC1` [Compound 48, 2-(4-Methoxypiperidin-1-yl)-N-(6-(2-methyloxazol-5-yl)isoquinolin-3-yl) acetamide]: the EC50 came out at 3890 nM in assay [1]; 718 nM in assay [2]; 20 nM at DYRK1A kinase (setting [5]); 9070 nM in the assay on IL-6; 820 nM in assay [3]; 54 nM on GSK3β kinase. The EC50 in assay [4] stood at 359 nM.

For `COC1CCN(CC(=O)Nc2cc3cc(-c4nnc(C)s4)ccc3cn2)CC1` [Compound 49, 2-(4-Methoxypiperidin-1-yl)-N-(6-(5-methyl-1,3,4-thiadiazol-2-yl)isoquinolin-3-yl)acetamide], the EC50 in assay [1] was 2900 nM; in assay [2], 643 nM; on DYRK1A kinase (setting [5]), 21 nM; in the assay with IL-6, greater than 10000 nM; in assay [3] it was greater than 10000 nM; on GSK3β kinase it was 6 nM. The EC50 in assay [4] was 135 nM. Also, the inhibition at 10 µM with IL-6 stood at 9%; in assay [3], 32.9%.

Consider `Cc1ncc(-c2ccc3cnc(NC(=O)N4CCC(N5CCOCC5)CC4)cc3c2)o1` [Compound 50, N-(6-(2-Methyloxazol-5-yl)isoquinolin-3-yl)-4-morpholinopiperidine-1-carboxamide], for which the EC50 in assay [1] was greater than 10000 nM; in assay [2], 1470 nM; at DYRK1A kinase (setting [5]), 20 nM; in the assay on IL-6, 9200 nM; in assay [3], 28 nM; on GSK3β kinase, 218 nM. In addition, the EC50 in assay [4] is 779 nM. Besides, the inhibition at 10 µM in assay [1] (SW480, read-out: percent inhibition at 10 μM) worked out at 43%.

With `Cc1ncc(-c2ccc3cnc(NC(=O)N4CC[C@H](N)[C@@H](F)C4)cc3c2)o1` [Compound 51, (3S,4S)-4-Amino-3-fluoro-N-(6-(2-methyloxazol-5-yl)isoquinolin-3-yl) piperidine-1-carboxamide], the EC50 in assay [1] came to 3940 nM; in assay [2], 2490 nM; on DYRK1A kinase (setting [5]), 14 nM; in the assay with IL-6, 3240 nM; in assay [3] it was 36 nM; at GSK3β kinase, 349 nM. In addition, in assay [4], the EC50 is 656 nM.

For the molecule `Cc1ncc(-c2ccc3cnc(NC(=O)N4CCC(N(C)CC(F)F)CC4)cc3c2)o1` [Compound 52, 4-((2,2-Difluoroethyl)(methyl)amino)-N-(6-(2-methyloxazol-5-yl)isoquinolin-3-yl)piperidine-1-carboxamide], the EC50 was determined as 3970 nM in assay [1]; 1730 nM in assay [2]; 9 nM on DYRK1A kinase (setting [5]); 3700 nM with IL-6; 923 nM in assay [3]; 156 nM on GSK3β kinase. Further, the EC50 in assay [4] is 1100 nM.

As for `Cc1ncc(-c2ccc3cnc(NC(=O)N4CC[C@H](NC(C)C)[C@@H](F)C4)cc3c2)o1` [Compound 53, (3 S,4S)-3-Fluoro-4-(isopropylamino)-N-(6-(2-methyloxazol-5-yl)isoquinolin-3-yl)piperidine-1-carboxamide], the EC50 in assay [1] was found to be 4510 nM; in assay [2] it was 1580 nM; on DYRK1A kinase (setting [5]), 38 nM; in the assay on IL-6 it was 9360 nM; in assay [3] it was 2810 nM; at GSK3β kinase it was 366 nM. For the same molecule, in assay [4], the EC50 worked out at 2300 nM.

On to `COC1CCN(CC(=O)Nc2cc3cc(-c4cn(C)nn4)ccc3cn2)CC1` [Compound 54, 2-(4-Methoxypiperidin-1-yl)-N-(6-(1-methyl-1H-1,2,3-triazol-4-yl)isoquinolin-3-yl)acetamide], for which the EC50 worked out at 3210 nM in assay [1]; 412 nM in assay [2]; 7 nM on DYRK1A kinase (setting [5]); 9630 nM in the assay on IL-6; 943 nM in assay [3]; 6 nM on GSK3β kinase. In addition, the EC50 in assay [4] amounted to 97 nM.

Regarding `Cc1ncc(-c2cc3cc(NC(=O)[C@H]4CC[C@H](N5CCOCC5)CC4)ncc3cc2F)o1` [Compound 55, trans-N-(7-Fluoro-6-(2-methyloxazol-5-yl)isoquinolin-3-yl)-4-morpholinocyclohexane-1-carboxamide], the EC50 in assay [1] is 1300 nM; in assay [2], 678 nM; on DYRK1A kinase (setting [5]), 6 nM; in the assay on IL-6, greater than 10000 nM; in assay [3], 3700 nM; at GSK3β kinase it was 88 nM. In assay [4], the EC50 was determined as 178 nM. The inhibition at 10 µM with IL-6 was found to be 18.3%.

For the molecule `Cn1cc(-c2cc(F)c3cnc(NC(=O)[C@H]4CC[C@H](N5CCOCC5)CC4)cc3c2)nn1` [Compound 56, trans-N-(8-Fluoro-6-(1-methyl-1H-1,2,3-triazol-4-yl)isoquinolin-3-yl)-4-morpholinocyclohexane-1-carboxamide], the EC50 in assay [1] is 6500 nM; in assay [2], 285 nM; on DYRK1A kinase (setting [5]) it was 4 nM; with IL-6, 3370 nM; in assay [3], 5350 nM; at GSK3β kinase it was 9 nM. Further, the EC50 in assay [4] was 92 nM.

`Cc1nnc(-c2cc(F)c3cnc(NC(=O)[C@H]4CC[C@H](N5CCOCC5)CC4)cc3c2)s1` [Compound 57, trans-N-(8-Fluoro-6-(5-methyl-1,3,4-thiadiazol-2-yl)isoquinolin-3-yl)-4-morpholinocyclohexane-1-carboxamide]: the EC50 was 4110 nM in assay [1]; 1170 nM in assay [2]; 9 nM on DYRK1A kinase (setting [5]); greater than 10000 nM in the assay on IL-6; greater than 10000 nM in assay [3]; 16 nM at GSK3β kinase. The EC50 in assay [4] turned out to be 136 nM. Also, the inhibition at 10 µM in the assay on IL-6 is 6.1%; in assay [3] it was 40.1%.

`Cc1cn2c(n1)CN(C(=O)Nc1cc3cc(-c4cnc(C)o4)ccc3cn1)CC2` [Compound 59, 2-Methyl-N-(6-(2-methyloxazol-5-yl)isoquinolin-3-yl)-5,6-dihydroimidazo [1,2-a]pyrazine-7(8H)-carboxamide]: the EC50 worked out at 140 nM in assay [1]; 297 nM in assay [2]; 3 nM on DYRK1A kinase (setting [5]); 129 nM in the assay on IL-6; 4100 nM in assay [3]; 15 nM at GSK3β kinase. For the same molecule, the EC50 in assay [4] was 35 nM.

`Cn1cc(-c2ccc3cnc(NC(=O)N4CCOCC4)cc3c2)nn1` [Compound 60, N-(6-(1-Methyl-1H-1,2,3-triazol-4-yl)isoquinolin-3-yl)morpholine-4-carboxamide]: the EC50 in assay [1] was 4060 nM; in assay [2] it was 4860 nM; at DYRK1A kinase (setting [5]), 7 nM; in the assay on IL-6, greater than 10000 nM; in assay [3] it was 671 nM; on GSK3β kinase, 73 nM. Also, in assay [4], the EC50 was found to be 1100 nM. In addition, the inhibition at 10 µM with IL-6 came to 5.7%.

On to `Cc1nnc(-c2ccc3cnc(NC(=O)N4CCN(C)CC4)cc3c2)s1` [Compound 62, 4-Methyl-N-(6-(5-methyl-1,3,4-thiadiazol-2-yl)isoquinolin-3-yl)piperazine-1-carboxamide], for which the EC50 in assay [1] was 3640 nM; in assay [2] it was 1230 nM; on DYRK1A kinase (setting [5]), 7 nM; in the assay on IL-6 it was greater than 10000 nM; in assay [3] it was 2640 nM; on GSK3β kinase, 68 nM. Moreover, the EC50 in assay [4] came out at 1200 nM. In addition, in the assay with IL-6, the inhibition at 10 µM is 8.5%.
